# Patent publication US20240197688A1, “COMBINATION MEDICINE FOR PREVENTING/TREATING DYSLIPIDEMIA OR CARDIOVASCULAR DISEASE” (KOWA COMPANY, LTD., priority 2021, published 2024)
# Key:
# Format in all cases: in vivo
# Wistar rat = experiment: Effect of combination use of compound A and compound B on TG index of rat; conditions: male Wistar rat, oral once a day for 2 weeks; compound A 0.3 mg/kg, compound B 30 mg/kg, alone or in combination; actual value
# Source text: Male rats (7-week-old, Wistar [Crlj: WI], Charles River Laboratories Japan, Inc.) were used for an experiment. Blood was collected from the jugular vein under satiation, and the rats were divided into four groups (N=6) based on TG and TC in the plasma and body weights. For two weeks from the next day of the grouping, each of a solvent (0.5% carboxymethyl cellulose aqueous solution: CMC), a compound A (pemafibrate) alone, a compound B (bempedoic acid) alone, and a combination of pemafibrate and bempedoic acid was orally administered once per day. After four hours from the final administration of the drug, blood was collected under isoflurane anesthesia to obtain plasma. Parameters in the blood were measured using an automated analyzer (Labospect 003, Hitachi High-Technologies Corporation). A lipid content in the liver was measured using the method described in J. Biol. Chem. 226 (1), 497-509 (1957) (FOLCH method). A TG index (%) was expressed as a ratio of a product of a blood TG concentration and a TG content in the liver of a sample to that of Control. In the present Example, the compound A was prepared and used according to the method described in Patent Document 1. […] Comparison between the control group and each of the drug administration groups was performed by a multiple comparison test of Dunnett, and a risk rate of less than 5% was determined to have a significant difference.
# db/db mice = experiment: Effect of combination use on total cholesterol content in liver of db/db mice; conditions: male db/db mice, oral once a day for 2 weeks; compound A 0.3 mg/kg, compound B 10 mg/kg, alone or in combination
# Source text: Male mice (8-week-old, db/db: BKS.Cg−+Leprdb/+Leprdb/Jcl, Lean: BKS. Cg−m+/m+/Jcl, CLEA Japan, Inc.) were used for an experiment. They were divided into four groups (N=8) based on body weights. For two weeks from the next day of the grouping, each of a solvent (0.5% methylcellulose aqueous solution: MC), a compound A (pemafibrate) alone, a compound B (bempedoic acid) alone, and a combination of pemafibrate and bempedoic acid was orally administered once per day. After four hours from the final administration of the drug, the liver was extracted under isoflurane anesthesia, and the TC concentration in the liver was measured using the FOLCH method described above. • Group 1: Control (Solvent Only) • Group 2: 0.3 mg/kg of Compound A • Group 3: 10 mg/kg of Compound B • Group 4: 0.3 mg/kg of Compound A and 10 mg/kg of Compound B The results were presented by an average value±standard error. Comparison between the control group and each of the drug administration groups was performed by a multiple comparison test of Tukey, and a risk rate of less than 5% was determined to have a significant difference.
# PPARα gene = experiment: Effect of combination use on expression level of PPARα gene in liver of rat (quantitative PCR); conditions: male Wistar rat, oral once a day for 2 weeks; compound A 0.3 mg/kg, compound B 30 mg/kg, alone or in combination; β-actin internal standard; actual value
# Source text: Male rats (7-week-old, Wistar [Crlj: WI], Charles River Laboratories Japan, Inc.) were used for an experiment. Blood was collected from the jugular vein under satiation, and the rats were divided into four groups (N=6) based on TG and TC in the plasma and body weights. For two weeks from the next day of the grouping, each of a solvent (0.5% carboxymethyl cellulose aqueous solution: CMC), a compound A (pemafibrate) alone, a compound B (bempedoic acid) alone, and a combination of pemafibrate and bempedoic acid was orally administered once per day. After four hours from the final administration of the drug, blood was collected under isoflurane anesthesia to obtain the liver. RNA in the liver was extracted using ISOGEN (Nippon Gene Co., Ltd.), and cDNA was prepared using a high-capacity cDNA reverse transcription kit (Thermo Fischer Scientific). Quantitative PCR (polymerase chain reaction) was performed using the prepared cDNA, and the relative value of the expression level of the PPARα gene was calculated using β-actin gene as an internal standard. […]
# The results were presented by an average value standard error. Comparison between the control group and each of the drug administration groups was performed by a multiple comparison test of Dunnett, and a risk rate of less than 5% was determined to have a significant difference.
Structure (SMILES),TG index (ratio of product of blood TG concentration and liver TG content to that of Control) (Wistar rat),total cholesterol content in the liver compared to Control (db/db mice),expression level of PPARα gene (Ppara) in the liver relative to Control (PPARα gene)
"CC[C@@H](Oc1cccc(CN(CCCOc2ccc(OC)cc2)c2nc3ccccc3o2)c1)C(=O)O [compound A, (R)-2-[3-[[N-(benzoxazole-2-yl)-N-3-(4-methoxyphenoxy)propyl]aminomethyl]phenoxy]butyric acid]",65.4%,86.2%,1.17 times
"CC(C)(CCCCCC(O)CCCCCC(C)(C)C(=O)O)C(=O)O [compound B, 8-hydroxy-2,2,14,14-tetramethylpentadecanedioic acid]",60.6%,87.0%,1.22 times
